# Results from patent US20240225973A1, “COSMETIC COMPOSITION FOR IMPROVING SENSITIVE SKIN” (LG HOUSEHOLD & HEALTH CARE LTD., priority 2023, published 2024).
# Test system: beta-defensin 2 (human β-defensin 2, hBD-2)
# Assay: beta-defensin 2 synthesis ELISA in cortisol-treated HaCaT cells
# Assay type: cell-based
# Set-up: change of beta-defensin 2 in skin cells: dose or concentration left out as unconfirmed
# Details: for enhancement efficacy (beta-defensin 2 synthesis): single treatment at 1 ppm
# Method: First, HaCaT, which is a human epidermal cell of the outermost layer among skin cells, was cultured using Dulbecco's Modified Eagle's Media (DMEM; Gibco, USA) mixed with 10% fetal bovine serum (FBS; Gibco, USA) and 1% antibiotic antimycotic (Gibco, USA) in a 24-well plate under conditions of 37° C. and 5% CO2. […] […] After 24 hours, the cells were treated with curcumin, taurine, and acetyl hexapeptide-8 at experimental concentrations, and cultured for 24 hours. At this time, curcumin, taurine, and acetyl hexapeptide-8 were treated alone, and the concentration of curcumin was fixed at 0.1 ppm and 1 ppm, and then taurine and acetyl hexapeptide-8 were treated in combination of concentrations, and cultured for 24 hours. 24 hours after treatment with each sample, ELISA was performed to quantify the amount of beta-defensin 2 (human β-defensin 2, hBD-2) protein synthesis. ELISA was performed using the HUMAN BETA DEFENSIN 2 ELISA kit (ALPHA DIAGNOSTIC, USA) and using the cell culture medium according to the kit's manual, and the final protein amount was calculated by measuring absorbance at 400 nm. […] At this time, when the amount thereof increased compared to the decrease due to cortisol, it was interpreted that the synthesis of beta-defensin 2 was increased by the sample. In addition, the synergistic effect between respective active substances that enhance beta-defensin 2 which had been reduced by cortisol was predicted through the Colby formula, and when the actual measured value was greater than the predicted value, it was determined that there was the synergistic effect.
# [1] = Table 4: each substance at 1 ppm, alone or three cotreated, Cortisol (5 μM) = 100
# [2] = single treatment 0.01 ppm, 24 h, HaCaT, cortisol group = 100
# [3] = single treatment 0.1 ppm, 24 h, HaCaT, cortisol group = 100
# [4] = single treatment 1 ppm, 24 h, HaCaT, cortisol group = 100
Compound,Production amount of beta-defensin 2 (%) [1] [%],Production amount of beta-defensin 2 (%) [2] [%],Production amount of beta-defensin 2 (%) [3] [%],Production amount of beta-defensin 2 (%) [4] [%],"Production amount of beta-defensin 2 (%) (single treatment 5 ppm, 24 h, HaCaT, cortisol group = 100)","Production amount of beta-defensin 2 (%) (single treatment 10 ppm, 24 h, HaCaT, cortisol group = 100)",enhancement efficacy (beta-defensin 2 synthesis),"change of beta-defensin 2 in skin cells (HaCaT, cultured for 24 hours)"
"NCCS(=O)(=O)O [Taurine, 2-aminoethanesulfonic acid]",117.6,100.60,99.90,117.60,87.61,83.06,confirmed,–
"COc1cc(/C=C/C(=O)CC(=O)/C=C/c2ccc(O)c(OC)c2)ccc1O [Curcumin, curcumin]",106.82,96.65,97.92,106.82,–,–,confirmed,–
"C[C@]12CCC(=O)C=C1CC[C@@H]1[C@@H]2[C@@H](O)C[C@@]2(C)[C@H]1CC[C@]2(O)C(=O)CO [cortisol, hydrocortisone, reference compound]",–,–,–,–,–,–,–,significantly reduced
